Measurements: patent US8410289B2, “Spirocyclic 3'-alkoxytetramic acids and-tetronic acids” (Bayer Cropscience AG, priority 2004, dated 2013)

Assays:
Summer wheat = assay: Herbicidal post-emergence action with/without safener (Example H, container trials with cereals, greenhouse or outdoors); assay type: in vivo; conditions: without safener
Protocol: (§1) Herbicidal Post-Emergence Action
(§2) Seeds of monocotyledonous and dicotyledonous weed and crop plants are placed into sandy loam in wood fibre pots or in plastic pots, covered with soil and cultivated in a greenhouse, during the vegetation period also outdoors outside of the greenhouse, under good growth conditions. 2-3 weeks after sowing, the test plants are treated at the one- to three-leaf stage. The test compounds, formulated as wettable powders (WP) or emulsifiable concentrates (EC) are, in various dosages with a water application rate of 300 l/ha (converted), with wetting agent (0.2 to 0.3%) added, sprayed onto the plants and the surface of the soil. 3-4 weeks after the treatment of the test plants, the effect of the preparations is rated visually in comparison to untreated controls (herbicidal effect in per cent (%): 100%=the plants have died, 0% effect=like control plants).
(§3) If it is additionally to be tested as to whether safeners can improve the crop plant compatibility of test substances in the case of crop plants, the following options are used for applying the safener: • seeds of the crop plants are, before sowing, dressed with the safener substance (the amount of safener stated in per cent, based on the weight of the seed) • before the application of the test substances, the crop plants are sprayed with the safener at a certain application rate per hectare (usually 1 day before the application of the test substances) • the safener is applied together with the test substance as a tank mix (the amount of safener is stated in g/ha or as a ratio, based on the herbicide).
(§4) By comparing the effect of the test substances on crop plants without or with safener treatment, it is possible to assess the effect of the safener substance.

barley = assay: as above; assay type: in vivo; conditions: greenhouse, without safener
Protocol: as §1, §2, §3, §4

[1] = log P determination by HPLC on reverse-phase column (C 18), EEC-Directive 79/831 Annex V.A8; assay type: physicochemical
Protocol: • The log P values given in the tables and preparation examples above are determined in accordance with EEC-Directive 79/831 Annex V.A8 by HPLC (High Performance Liquid Chromatography) on a reverse-phase column (C 18). Temperature: 43° C.
The determination is carried out in the acidic range at pH 2.3 using the mobile phases 0.1% aqueous phosphoric acid and acetonitrile; linear gradient from 10% acetonitrile to 95% acetonitrile.
The LC-MS determination in the acidic range is carried out at pH 2.7 using the mobile phases 0.1% aqueous formic acid and acetonitrile (contains 0.1% formic acid); linear gradient from […] acetonitrile to 95% acetonitrile.
The LC-MS determination in the neutral range is carried out at pH 7.8 using the mobile phases 0.001 molar aqueous ammonium bicarbonate solution and acetonitrile; linear gradient from 10% acetonitrile to 95% acetonitrile.
The calibration is carried out using unbranched alkan-2-ones (with 3 to 16 carbon atoms) with known log P values (determination of the log P values by retention times using linear interpolation between two successive alkanones).

[2] = compounds of formula (I-2-b), isomer (cis, trans or α + β about 1:1), two values for α + β mixtures
[3] = HPLC reverse-phase C 18, acidic range pH 2.3, 43° C.
[4] = compounds of formula (I-2-a); generally isomer mixtures; those marked 1) were separated into cis and trans diastereomers

For COC1CCCC2(C1)NC(=O)C(c1c(C)cc(C)cc1C)=C2O (mixture of isomers) [Example I-1-a-2], the “Summer wheat observed (%)” value (Summer wheat; container trial in a greenhouse, application rate 100 g of a.i./ha) was 60%.

In the case of CCc1cc(C)cc(Br)c1C1=C(OC(=O)C(C)C)C2(CCCC(OC)C2)NC1=O (single isomer, unassigned) [Ex. I-1-b-11], the “Summer wheat observed (%)” value (Summer wheat; greenhouse, 25 g of a.i./ha) is reported as 10% and the “Summer wheat observed (%)” value (Summer wheat; greenhouse, 50 g of a.i./ha) is reported as 70%.

For CCCCOC1CCCC2(C1)NC(=O)C(c1c(Br)cc(C)cc1CC)=C2OC(=O)COC (single isomer, unassigned) [Ex. I-1-b-14], the “Summer wheat observed (%)” value (Summer wheat; greenhouse, 3.125 g of a.i./ha) was 20% and the “Summer wheat observed (%)” value (Summer wheat; greenhouse, 6.25 g of a.i./ha) was 30%.

With CCOC(=O)OC1=C(c2c(Br)cc(C)cc2CC)C(=O)NC12CCCC(OCC)C2 (single isomer, unassigned) [Ex. I-1-c-9] the “Summer wheat observed (%)” value (Summer wheat; greenhouse, 50 g of a.i./ha) was 30% and the “Summer wheat observed (%)” value (Summer wheat; greenhouse, 100 g of a.i./ha) was 60%.

In the case of CCCCOC1CCCC2(C1)NC(=O)C(c1c(Br)cc(C)cc1CC)=C2O (single isomer, unassigned) [Example I-1-a-17], the “Summer wheat observed (%)” value (Summer wheat; greenhouse, 6.25 g of a.i./ha) is reported as 10%, the “Summer wheat observed (%)” value (Summer wheat; greenhouse, 12.5 g of a.i./ha) is reported as 60% and the “Summer wheat observed (%)” value (Summer wheat; greenhouse, 25 g of a.i./ha) is reported as 70%.

In the case of CCCOC1CCCC2(C1)NC(=O)C(c1c(C)cc(C)cc1C)=C2O (single isomer, unassigned) [Example I-1-a-19], the “Summer barley observed (%)” value (barley; 50 g of a.i./ha) is reported as 25% and the “Summer barley observed (%)” value (barley; 100 g of a.i./ha) is reported as 30%.

Compound COC1CCCC2(C1)OC(=O)C(c1c(C)cc(C)cc1C)=C2OC(=O)C(C)C (centres unmarked) [Example I-2-b-4] has a logP [1, 2] of 4.15.

For COc1cc(C)cc(C)c1C1=C(OC(=O)C(C)C)C2(CCCC(OC)C2)OC1=O (centres unmarked) [Example I-2-b-5], the logP [1, 2] was 3.90.

With COc1cc(C)cc(C)c1C1=C(OC(=O)C(C)C)C2(CCCC(OC)C2)OC1=O (centres unmarked) [Example I-2-b-6] the logP [1, 2] was 3.75.

For CO[C@H]1CCC[C@@]2(C1)OC(=O)C(c1cc(-c3ccc(Cl)cc3)c(C)cc1C)=C2OC(=O)OC(C)C [Example I-2-c-1], the chromatographic logP ([1]; reverse-phase HPLC column (C 18), HPLC, reverse-phase column (C 18), 43° C.) was 5.21.

With COC1CCCC2(C1)OC(=O)C(c1cc(-c3ccc(Cl)cc3)c(C)cc1C)=C2OC(=O)OC(C)C (centres unmarked) [Example I-2-c-2] the logP [1, 3] was 5.32.

In the case of COC1CCCC2(C1)OC(=O)C(c1c(C)cc(C)cc1C)=C2OC(=O)OC(C)C (centres unmarked) [Example I-2-c-3], the logP [1, 3] is reported as 4.17.

Compound COC1CCCC2(C1)OC(=O)C(c1c(C)cc(C)cc1C)=C2OC(=O)OC(C)C (centres unmarked) [Example I-2-c-4] has a logP [1, 3] of 4.34.

Compound COc1cc(C)cc(C)c1C1=C(OC(=O)OC(C)C)C2(CCCC(OC)C2)OC1=O (centres unmarked) [Example I-2-c-5] has a logP [1, 3] of 3.75.

With COc1cc(C)cc(C)c1C1=C(OC(=O)OC(C)C)C2(CCCC(OC)C2)OC1=O (centres unmarked) [Example I-2-c-6] the logP [1, 3] was 3.90.

With COC1CCCC2(C1)OC(=O)C(c1c(Br)cc(C)cc1Br)=C2O (centres unmarked) [I-2-a-19] the logP [1, 4] was 2.51.

With COC1CCCC2(C1)OC(=O)C(c1cc(Br)ccc1C)=C2O (centres unmarked) [I-2-a-23] the logP [1, 4] was 2.30.

Compound COC1CCCC2(C1)OC(=O)C(c1ccc(Cl)cc1C(F)(F)F)=C2O (centres unmarked) [I-2-a-24] has a logP [1, 4] of 2.37.

With COC1CCCC2(C1)OC(=O)C(c1c(C)cccc1Cl)=C2O (centres unmarked) [I-2-a-25] the logP [1, 4] was 1.92.

With COC1CCCC2(C1)OC(=O)C(c1c(Cl)cc(Br)c(C)c1Cl)=C2O (centres unmarked) [I-2-a-53] the logP [1, 4] was 2.70.

Compound CCCCOC1CCCC2(C1)OC(=O)C(c1c(CC)cc(Br)cc1CC)=C2O (centres unmarked) [I-2-a-55] has a logP [1, 4] of 4.24.

With CCCCOC1CCCC2(C1)OC(=O)C(c1ccc(C)cc1Cl)=C2O (centres unmarked) [I-2-a-56] the logP [1, 4] was 3.32.

CCCCOC1CCCC2(C1)OC(=O)C(c1ccccc1C)=C2O (centres unmarked) [I-2-a-57] gave a logP [1, 4] of 3.03.

CCCCOC1CCCC2(C1)OC(=O)C(c1ccc(C)cc1C)=C2O (centres unmarked) [I-2-a-58] gave a logP [1, 4] of 3.32.

CCCCOC1CCCC2(C1)OC(=O)C(c1cc(C)c(C)cc1Br)=C2O (centres unmarked) [I-2-a-59] showed a logP [1, 4] of 3.57.

Compound CCCCOC1CCCC2(C1)OC(=O)C(c1c(C)cc(C)cc1Cl)=C2O (centres unmarked) [I-2-a-60] has a logP [1, 4] of 3.49.

CCCCOC1CCCC2(C1)OC(=O)C(c1c(C)cc(C)c(C)c1C)=C2O (centres unmarked) [I-2-a-61] gave a logP [1, 4] of 3.76.

CCCCOC1CCCC2(C1)OC(=O)C(c1cc(C)ccc1C)=C2O (centres unmarked) [I-2-a-62] gave a logP [1, 4] of 3.36.

For CCCCOC1CCCC2(C1)OC(=O)C(c1c(C)cc(Br)cc1CC)=C2O (centres unmarked) [I-2-a-63], the logP [1, 4] was 3.99.
